Assay results as given in patent US10183943B2, “Heterocyclic compounds and their use in preventing or treating bacterial infections” (MUTABILIS, priority 2015, dated 2019).
Counter-ions that a name gives are not always drawn.

Tests used:
TEM-1 = biological target: T1, TEM-1 (Escherichia coli, UniProt P62593); test: β-lactamase inhibitory activity, determination of IC50 (nitrocefin hydrolysis); format: biochemical
T1 construct: made in house; host or cells: E. coli

SHV-1 = biological target: T2, SHV-1 (Klebsiella pneumoniae, UniProt P0AD64); test: as above; format: biochemical
T2 construct: made in house; host or cells: E. coli
T2 sequence (P0AD64 22-286): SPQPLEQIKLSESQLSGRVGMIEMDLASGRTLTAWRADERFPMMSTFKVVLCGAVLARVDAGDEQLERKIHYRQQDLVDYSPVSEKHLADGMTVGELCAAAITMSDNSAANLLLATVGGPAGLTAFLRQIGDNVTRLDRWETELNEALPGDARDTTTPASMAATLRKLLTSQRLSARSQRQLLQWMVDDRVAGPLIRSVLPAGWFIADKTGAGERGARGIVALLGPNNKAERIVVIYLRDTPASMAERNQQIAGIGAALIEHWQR

KPC-2 = biological target: T3, KPC-2 (Klebsiella pneumoniae, UniProt Q9F663); test: as above; format: biochemical; details: class (A); nitrocefin 200 μM, 30 min pre-incubation; read-out: IC50 β-lactamase KPC-2
T3 construct: made in house; host or cells: E. coli
T3 sequence (Q9F663 25-293 limits assumed): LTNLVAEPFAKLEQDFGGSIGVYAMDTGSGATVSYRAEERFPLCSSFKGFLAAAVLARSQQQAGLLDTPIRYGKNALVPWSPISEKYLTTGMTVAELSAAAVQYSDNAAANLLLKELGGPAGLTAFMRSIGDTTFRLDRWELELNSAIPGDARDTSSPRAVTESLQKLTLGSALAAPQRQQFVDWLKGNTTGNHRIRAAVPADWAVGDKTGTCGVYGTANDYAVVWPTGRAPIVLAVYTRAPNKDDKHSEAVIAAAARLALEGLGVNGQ

OXA-15 = biological target: T4, OXA-15 (Pseudomonas aeruginosa, UniProt Q51574); test: biochemical
T4 construct: made in house; host or cells: E. coli
T4 sequence (Q51574 22-275): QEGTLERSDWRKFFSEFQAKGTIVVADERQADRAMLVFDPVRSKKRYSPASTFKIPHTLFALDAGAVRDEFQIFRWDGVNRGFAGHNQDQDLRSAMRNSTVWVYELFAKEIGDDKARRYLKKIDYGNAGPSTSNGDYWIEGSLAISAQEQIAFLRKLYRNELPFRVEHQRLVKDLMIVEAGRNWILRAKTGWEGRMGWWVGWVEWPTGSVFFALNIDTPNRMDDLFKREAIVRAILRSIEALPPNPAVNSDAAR

OXA-48 = biological target: T5, OXA-48 (Klebsiella pneumoniae, UniProt Q6XEC0); test: β-lactamase inhibitory activity, determination of IC50 (nitrocefin hydrolysis); format: biochemical; details: class (D); nitrocefin 200 μM, 30 min pre-incubation; read-out: IC50 β-lactamase OXA-48
T5 construct: made in house; host or cells: E. coli
T5 sequence (Q6XEC0 23-265 limits assumed): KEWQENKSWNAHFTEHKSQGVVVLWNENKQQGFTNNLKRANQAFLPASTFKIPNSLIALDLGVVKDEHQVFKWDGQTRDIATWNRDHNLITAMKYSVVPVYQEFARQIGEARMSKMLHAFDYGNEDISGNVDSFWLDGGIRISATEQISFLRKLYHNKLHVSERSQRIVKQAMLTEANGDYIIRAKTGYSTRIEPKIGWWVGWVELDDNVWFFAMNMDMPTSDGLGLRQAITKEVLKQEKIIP

E. cloacae P99 (AmpC) = test: MIC of compounds alone, broth microdilution; format: cell-based; details: Enterobacter cloacae; strain P99 (E. cloacae); read-out: MIC compounds of the invention alone
How it was run: (§1)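 CLSI broth microdilution with compounds alone, spotted from DMSO, against log-phase bacteria at 5×10^5 cfu/mL in cation-adjusted Mueller-Hinton broth. Plates incubated 16-20 h at 35 °C in ambient air; MIC was the lowest concentration preventing visible growth.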

[1] = tested on: E. cloacae UFR51 (SHV-12, IMP-8); test: MIC of compounds alone, broth microdilution; format: cell-based; details: Enterobacter cloacae; strain UFR51 (E. cloacae); read-out: MIC compounds of the invention alone
How it was run: as §1

[2] = tested on: E. coli 131119 (TEM-1, OXA-48); test: MIC of compounds alone, broth microdilution; format: cell-based; details: Escherichia coli; strain 131119 (E. coli); read-out: MIC compounds of the invention alone
How it was run: as §1

E. coli RGN238 (OXA-1) = test: MIC of compounds alone, broth microdilution; format: cell-based; details: Escherichia coli; strain RGN238 (E. coli); read-out: MIC compounds of the invention alone
How it was run: as §1

[3] = tested on: E. coli UFR18 (CTX-M-15, OXA-204); test: MIC of compounds alone, broth microdilution; format: cell-based; details: Escherichia coli; strain UFR18 (E. coli); read-out: MIC compounds of the invention alone
How it was run: as §1

[4] = tested on: E. coli UFR32 (TEM-1, VEB-1, OXA-10); test: MIC of compounds alone, broth microdilution; format: cell-based; details: Escherichia coli; strain UFR32 (E. coli); read-out: MIC compounds of the invention alone
How it was run: as §1

[5] = tested on: E. coli UFR41 (TEM-1, CTX-M-15, CMY-2, OXA-1, NDM-4); test: MIC of compounds alone, broth microdilution; format: cell-based; details: Escherichia coli, read-out: MIC compounds of the invention alone
How it was run: as §1

[6] = tested on: E. coli UFR61O (TEM-1, KPC-2); test: MIC of compounds alone, broth microdilution; format: cell-based; details: Escherichia coli; strain UFR61O (E. coli); read-out: MIC compounds of the invention alone
How it was run: as §1

[7] = tested on: E. coli UFR74 (SHV-1, DHA-1); test: MIC of compounds alone, broth microdilution; format: cell-based; details: Escherichia coli; strain UFR74 (E. coli); read-out: MIC compounds of the invention alone
How it was run: as §1

[8] = tested on: K. oxytoca UFR21 (TEM-1, CTX-M-15, OXA-48); test: MIC of compounds alone, broth microdilution; format: cell-based; details: Klebsiella oxytoca, read-out: MIC compounds of the invention alone
How it was run: as §1

[9] = tested on: K. pneumoniae 160143 (TEM-1, SHV-1, CTX-M-15, KPC-2, OXA-1); test: MIC of compounds alone, broth microdilution; format: cell-based; details: Klebsiella pneumoniae, read-out: MIC compounds of the invention alone
How it was run: as §1

[10] = tested on: K. pneumoniae 200047 (TEM-1, SHV-32, CTX-M-15, OXA-1); test: MIC of compounds alone, broth microdilution; format: cell-based; details: Klebsiella pneumoniae, read-out: MIC compounds of the invention alone
How it was run: as §1

[11] = tested on: K. pneumoniae 6299 (TEM-1, SHV-11, OXA-163); test: MIC of compounds alone, broth microdilution; format: cell-based; details: Klebsiella pneumoniae; strain 6299 (K. pneumoniae); read-out: MIC compounds of the invention alone
How it was run: as §1

[12] = tested on: K. pneumoniae BAA-1898 (TEM-1, SHV-11, SHV-12, KPC-2); test: MIC of compounds alone, broth microdilution; format: cell-based; details: Klebsiella pneumoniae, BAA1898; strain BAA-1898 (K. pneumoniae); read-out: MIC compounds of the invention alone
How it was run: as §1

[13] = tested on: K. pneumoniae UFR24 (TEM-1, SHV-2, SHV-11, OXA-1, OXA-48, OXA-47); test: MIC of compounds alone, broth microdilution; format: cell-based; details: Klebsiella pneumoniae; strain UFR24 (K. pneumoniae); read-out: MIC compounds of the invention alone
How it was run: as §1

[14] = tested on: K. pneumoniae UFR39 (CTX-M-15, NDM-1); test: MIC of compounds alone, broth microdilution; format: cell-based; details: Klebsiella pneumoniae; strain UFR39 (K. pneumoniae); read-out: MIC compounds of the invention alone
How it was run: as §1

[15] = tested on: K. pneumoniae UFR77 (CMY-2); test: MIC of compounds alone, broth microdilution; format: cell-based; details: Klebsiella pneumoniae; strain UFR77 (K. pneumoniae); read-out: MIC compounds of the invention alone
How it was run: as §1

[16] = tested on: P. aeruginosa CIP107051 (TEM-24); test: MIC of compounds alone, broth microdilution; format: cell-based; details: Pseudomonas aeruginosa; strain CIP107051 (P. aeruginosa); read-out: MIC compounds of the invention alone
How it was run: as §1

AmpC (P99) = AmpC (P99) (Enterobacter cloacae, UniProt P05364); test: β-lactamase inhibitory activity, determination of IC50 (nitrocefin hydrolysis)
Sequence of AmpC (P99) (P05364 21-381): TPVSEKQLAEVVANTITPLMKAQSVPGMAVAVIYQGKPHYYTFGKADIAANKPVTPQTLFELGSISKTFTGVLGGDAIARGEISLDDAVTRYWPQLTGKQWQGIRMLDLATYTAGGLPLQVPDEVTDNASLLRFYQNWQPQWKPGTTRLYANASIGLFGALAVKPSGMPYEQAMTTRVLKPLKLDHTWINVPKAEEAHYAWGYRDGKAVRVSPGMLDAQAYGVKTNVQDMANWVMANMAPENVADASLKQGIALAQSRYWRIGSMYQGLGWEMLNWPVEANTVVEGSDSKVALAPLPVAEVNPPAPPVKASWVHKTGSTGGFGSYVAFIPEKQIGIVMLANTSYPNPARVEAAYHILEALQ

T1 sequence (P62593 24-286 limits assumed): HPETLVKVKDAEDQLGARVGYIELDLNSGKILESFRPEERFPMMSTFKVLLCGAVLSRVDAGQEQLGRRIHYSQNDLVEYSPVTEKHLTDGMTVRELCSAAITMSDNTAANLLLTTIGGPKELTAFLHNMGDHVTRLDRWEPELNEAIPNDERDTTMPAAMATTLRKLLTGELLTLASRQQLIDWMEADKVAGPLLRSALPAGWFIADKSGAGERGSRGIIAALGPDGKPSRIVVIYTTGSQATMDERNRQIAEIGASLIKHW

SMILES | IC50 (TEM-1) [µM] | IC50 (SHV-1) [µM] | IC50 (KPC-2) [µM] | IC50 (OXA-15) [µM] | IC50 (OXA-48) [µM] | MIC (E. cloacae P99 (AmpC)) [mg/L] | MIC [1] [mg/L] | MIC [2] [mg/L] | MIC (E. coli RGN238 (OXA-1)) [mg/L] | MIC [3] [mg/L] | MIC [4] [mg/L] | MIC [5] [mg/L] | MIC [6] [mg/L] | MIC [7] [mg/L] | MIC [8] [mg/L] | MIC [9] [mg/L] | MIC [10] [mg/L] | MIC [11] [mg/L] | MIC [12] [mg/L] | MIC [13] [mg/L] | other results
O=C1N2CC(c3ncco3)=C[C@H](C2)N1OS(=O)(=O)[O-].[Na+] [Example 44, Sodium [(5R)-3-(oxazol-2-yl)-7-oxo-1,6-diazabicyclo[3.2.1]oct-3-en-6-yl] sulfate] | 0.00069 | 0.006 | 0.011 | 0.067 | 0.0015 | 4 | 1 | 0.5 | 1 | 1 | 1 | 4 | 4 | 2 | 4 | 1 | 1 | 4 | 4 | 2 | MIC [14]: 4 mg/L; MIC [15]: 2 mg/L; MIC [16]: > 32 mg/L; IC50 (AmpC (P99)): 0.01 µM
NCc1cnc(C2=CC3CN(C2)C(=O)N3OS(=O)(=O)O)s1 (stereo not drawn) [Example 38, [3-[5-(aminomethyl)thiazol-2-yl]-7-oxo-1,6-diazabicyclo[3.2.1]oct-3-en-6-yl] hydrogen sulfate] | 0.0007 | 0.0043 | 0.019 | 0.28 | 0.0077 | 4 | 1 | 4 | 32 | 0.5 | 32 | 1 | 2 | 32 | 16 | 8 | 8 | > 32 | > 32 | > 32 | MIC [14]: 0.5 mg/L; MIC [15]: 32 mg/L; MIC [16]: > 32 mg/L; IC50 (AmpC (P99)): 0.031 µM
Cn1cc(C2=CCN3CC2N(OS(=O)(=O)[O-])C3=O)cnc1=O.[Na+] (stereo not drawn) [Example 15, Sodium [4-(N-methyl-2-oxo-pyrimidin-5-yl)-7-oxo-1,6-diazabicyclo[3.2.1]oct-3-en-6-yl] sulfate] | 0.0099 | 0.012 | 0.11 | 0.29 | 0.0079 | 2 | 0.5 | 4 | 16 | 0.5 | 1 | > 32 | 8 | > 32 | 32 | > 32 | > 32 | > 32 | > 32 | > 32 | MIC [14]: 0.5 mg/L; MIC [15]: > 32 mg/L; MIC [16]: > 32 mg/L; IC50 (AmpC (P99)): 2 µM
O=C1N2CC=C(c3cnco3)C(C2)N1OS(=O)(=O)[O-].[Na+] (stereo not drawn) [Example 3, Sodium [4-(oxazol-5-yl)-7-oxo-1,6-diazabicyclo[3.2.1]oct-3-en-6-yl]sulfate] | 0.0034 | 0.0069 | 0.29 | 0.033 | 0.0035 | 8 | 2 | 4 | 16 | 2 | > 32 | > 32 | 16 | > 32 | > 32 | > 32 | > 32 | > 32 | > 32 | > 32 | MIC [14]: 4 mg/L; MIC [15]: > 32 mg/L; MIC [16]: > 32 mg/L; IC50 (AmpC (P99)): 0.77 µM
O=C1N2CC(c3ncco3)=CC(C2)N1OS(=O)(=O)[O-].[Na+] (stereo not drawn) [Example 25, Sodium [3-(oxazol-2-yl)-7-oxo-1,6-diazabicyclo[3.2.1]oct-3-en-6-yl]sulfate] | 0.0038 | 0.015 | 0.03 | 0.3 | 0.0066 | 8 | 4 | 2 | 2 | 2 | 2 | 16 | 8 | 4 | 4 | 4 | 2 | 8 | 4 | 4 | MIC [14]: 8 mg/L; MIC [15]: 4 mg/L; MIC [16]: > 128 mg/L; IC50 (AmpC (P99)): 0.064 µM
Cn1ncc(C2=CCN3CC2N(OS(=O)(=O)[O-])C3=O)cc1=O.[Na+] (stereo not drawn) [Example 19, Sodium [4-(1-methyl-6-oxo-pyridazin-4-yl)-7-oxo-1,6-diazabicyclo[3.2.1]oct-3-en-6-yl] sulfate] | 0.004 | 0.0089 | 0.046 | 0.075 | 0.0047 | 8 | 4 | 2 | 32 | 4 | > 32 | > 32 | > 32 | > 32 | > 32 | > 32 | > 32 | > 32 | > 32 | > 32 | MIC [14]: 4 mg/L; MIC [15]: > 32 mg/L; MIC [16]: > 32 mg/L; IC50 (AmpC (P99)): 0.94 µM
